Reference: publication PMC10902301, “Interactions between the protein barnase and co-solutes studied by NMR” (Communications Chemistry, 2024)
Values joined by “and” are separate entries in the source; they are usually repeats but may differ in a detail not shown here. Equal values may be shown once. Where a name gives a salt, the structure may show the parent alone.

Columns and labels:
[1] = target: T1, barnase (Bacillus amyloliquefaciens, UniProt P00648, H149A); settings: for binding to barnase (in words): from curvature of chemical shift profiles; for mL for amide protons (1HN), mean ± standard deviation over residues: single co-solute titration up to 1 M, 5 mM acetate pH 5.8
Experimental: (§1) For each titration point, protein 2D peak positions were measured and loaded into a database. […] We hypothesized that the hyperbolic parts indicate direct binding of the co-solute to the protein, while the linear parts represent indirect effects on the protein chemical shifts caused by interactions of the co-solute with the solvent, which thus leads to altered protein solvation. Linear changes in shift could also arise from co-solute-induced conformational changes in the protein. […] We therefore fitted the data to a sum of two equations: a hyperbolic curve plus a linear change. Fitting to the hyperbolic curve gives a resultant binding affinity, which can be tabulated as either a dissociation constant Kd (with units of concentration) or an association constant Ka (with units of reciprocal concentration). […] Thus in the analysis below, we use Ka when examining binding to the protein surface. We note that the linear change is in fact a binding curve with very weak affinity, and will therefore start to curve at some point. Based on the likely affinities, curvature is unlikely to become apparent until the co-solute reaches a concentration of several M.
(§2) For fitting shift changes to obtain the dissociation constant, one would normally use a quadratic equation[36]:1 Δδobs=Δδmax{([P]i+[L]i+Kd)–[([P]i+[L]i+Kd)^2−4[P]i[L]i]^1/2}/2[P]I
(§3) We have therefore used it throughout. The complete equation used here for fitting the experimental shift changes is therefore3 Δδobs=Δδmax.Li/Kd+Li+mLLi which gives three fitted values for each nucleus: Kd, Δδmax, and mL. mL is the gradient of the linear component, and gives information on the indirect effect of the co-solute on protein chemical shifts via its effect on solvent. […] We discuss later the significance of mL: for present purposes, it is an empirical parameter that describes how the co-solute affects the protein indirectly via solvent.
(§4) For these reasons, all experiments were carried out using 5 mM acetate, pH 5.8, conditions that gave reproducible peak positions while using only a very low concentration of additional solutes.
(§5) Chemical shifts of ^1HN, ^15N, and ^13C’ were measured and fitted to Eq. (3).

[2] = system: protein surfaces; settings: molecular dynamics; ref Vrbka et al J Phys Chem B 2006 110:7036-7043; cited from earlier work
[3] = target: T1, barnase; experiment: biochemical; settings: average dissociation constant Kd at thiocyanate binding region, residues 35–46, 81–86; single binding site assumed; pH 5.8
Experimental: as §1, §2, §3, §4, §5

T1 sequence (P00648 48-157 H149A): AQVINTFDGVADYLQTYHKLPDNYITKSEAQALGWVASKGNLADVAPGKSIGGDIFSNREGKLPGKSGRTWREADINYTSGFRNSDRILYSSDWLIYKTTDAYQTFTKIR

Row | SMILES | binding to barnase (in words) [1] | average Ka over all nuclei ([1]; osmolyte titrations, average over residues that could be fitted) | mL for amide protons (1HN), mean ± standard deviation over residues [1] | contact times with protein surfaces in water [2] | average Ka ([1]; average over binding-site residues 35–46 and 81–86, 1HN, 15N, 13C' nuclei) | Kd [3]
1 | C[N+](C)(C)CC(=O)O [betaine, N-trimethyl glycine] | no binding | no evidence of any binding | +4.3 ± 15.9 ppb/M |  |  | 
2 | C[N+](C)(C)[O-] [TMAO, trimethylamine N-oxide] | only very weak binding |  | +9.7 ± 16.9 ppb/M |  |  | 
3 | O=S(=O)(O)O [sulfate, sodium sulfate] |  |  |  | 0.1-0.8 ns |  | 
4 | N#CS [thiocyanate, sodium thiocyanate] |  |  | –51 ± 51 ppb/M |  | about 45 M^−1 | 22 mM and ~22 mM
5 | Cl [chloride, sodium chloride] | overall weaker binding |  | –16 ± 26 ppb/M | 0.1-0.8 ns |  | 
6 | CC1=N[C@H](C(=O)O)CCN1 [ectoine] | very little binding |  | +16.5 ± 21.3 ppb/M |  |  | 
